Biological target: T1, Enkephalinase (Rattus norvegicus, UniProt P07861)
T1 construct: from tissue; host or cells: rat striatum, membrane (particulate) fraction
T1 sequence (P07861 1-750): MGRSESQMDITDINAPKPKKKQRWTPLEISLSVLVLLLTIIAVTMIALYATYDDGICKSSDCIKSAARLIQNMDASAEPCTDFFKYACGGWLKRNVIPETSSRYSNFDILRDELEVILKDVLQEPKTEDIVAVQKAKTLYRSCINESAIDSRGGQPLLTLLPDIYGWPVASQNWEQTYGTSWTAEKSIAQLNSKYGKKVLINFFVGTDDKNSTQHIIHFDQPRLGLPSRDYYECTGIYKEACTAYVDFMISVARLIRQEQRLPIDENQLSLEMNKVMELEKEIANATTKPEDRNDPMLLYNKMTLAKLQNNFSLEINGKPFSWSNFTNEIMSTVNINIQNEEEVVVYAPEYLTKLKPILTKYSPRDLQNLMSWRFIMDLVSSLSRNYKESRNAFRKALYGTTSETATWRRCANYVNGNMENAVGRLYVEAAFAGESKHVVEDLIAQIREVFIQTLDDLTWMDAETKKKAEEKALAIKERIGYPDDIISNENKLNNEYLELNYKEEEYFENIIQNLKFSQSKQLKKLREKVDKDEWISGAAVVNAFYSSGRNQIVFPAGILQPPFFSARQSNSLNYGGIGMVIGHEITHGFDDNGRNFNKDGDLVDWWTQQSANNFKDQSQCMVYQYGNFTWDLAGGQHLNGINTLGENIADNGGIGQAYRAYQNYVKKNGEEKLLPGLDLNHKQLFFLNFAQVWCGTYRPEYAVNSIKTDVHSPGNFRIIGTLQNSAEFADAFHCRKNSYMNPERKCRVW
Test: Inhibition of enkephalinase (rat striatum membrane fraction, tritiated leucine-enkephaline)
Format: biochemical, rats
Details: 20 nanomole tritiated leucine-enkephaline, 1 mM puromycin, 25° C., 15 minutes, pH 7.4, read-out: Enkaphalinase inhibition CI50 (50% inhibitory concentration)
Procedure: Enkephalinase activity was determined in a striatum membrane fraction of rats. The striatum was placed in ice and was homogenized in buffered 0.05M Tris with a pH of 7.4 (20 times the volume) and after a first centrifugation at 1000 g, the particular fraction obtained was subjected to two centrifugations for 10 minutes at 20,000 g. The culot was then suspended in buffered Tris and kept at 4° C. The amount of proteins was determined by the Comassie blue method.
After preincubation at 25° C. for 15 minutes, an aliquot of proteins was incubated at 25° C. for 15 minutes in the presence of 20 nanomole of tritiated leucine-enkephaline (against the first amino acid) previously purified, of 1 mM of puromycin and the test product in buffered Tris. The hydrolysis reaction was stopped by addition of 0.2N hydrochloric acid and the incubate was subjected to a deproteinization by heating at 95° C. for 15 minutes. Under these conditions, the kinetic reaction was linear. The tritiated metabolites obtained by hydrolysis were separated from enkephaline by chromatography over a column of porapak Q and elution with buffered Tris whereby enkephaline was retained in the column and was released in the following ethanolic phase. The activity of the different products was expressed in 50% inhibitory concentration called CI50 in Table II.

Row | SMILES | IC50 [nM]
1 | CC(=O)SCC(Cc1ccccc1)C(=O)Nc1ccccc1 (stereo not drawn) [Example 1, Ethanethioate of S-[3-oxo-3-phenylamino-2-benzyl-propyl]] | 10000
2 | CC(=O)SCC(Cc1ccccc1)C(=O)Nc1ccc(Cl)cc1 (stereo not drawn) [Example 3, Ethanethioate of S-[3-(4-chlorophenylamino)-3-oxo-2-benzylpropyl]] | 1000
3 | COc1cccc(NC(=O)C(CS)Cc2ccccc2)c1 (stereo not drawn) [Example 38, N-(3-methoxyphenyl) α-(mercaptomethyl)-benzene-propanamide] | 60

Second part, the compound after the results:

Row | IC50 [nM] | SMILES
4 | 1000 | O=C(Nc1ccccc1)C(CS)Cc1ccccc1 (stereo not drawn) [Example 2, α-mercaptomethyl-N-phenyl-benzene propanamide]
5 | 1000 | O=C(Nc1ccc(Cl)cc1)C(CS)Cc1ccccc1 (stereo not drawn) [Example 4, N-(4-chlorophenyl)-α-mercaptomethyl-benzene-propanamide]
6 | 100 | O=C(Nc1ccncc1)C(CS)Cc1ccccc1 (stereo not drawn) [Example 30, N-(4-pyridinyl) α-(mercaptomethyl)-benzene-propanamide]
7 | 50 | COc1ccc(NC(=O)C(CS)Cc2ccccc2)cc1 (stereo not drawn) [Example 36, N-(4-methoxyphenyl) α-(mercaptomethyl)-benzene-propanamide]
